# Reference: ChEMBL document CHEMBL1126381, “2-carboxy indolines and indoles as potential glycine/NMDA antagonists: effect of five-membered ring conformation on affinity” (Bioorg Med Chem Lett, 1992)
# Assays:
# [1] = biological target: Glutamate receptor ionotropic, NMDA 1 (Rattus norvegicus, UniProt P35439); test: Inhibition of [3H]L-689,560 binding to Glycine site of NMDA receptor of rat cortical membranes; type: cell membranes, Membrane
# Mus musculus [2] = test: In vivo activity in DBA/2 Mouse audiogenic seizure model was determined by testing number of animals protected after a dose of 100 mg/Kg i.p.; Number of animals tested 8 mice; type: functional
# Mus musculus [3] = test: In vivo activity in DBA/2 Mouse audiogenic seizure model was determined by testing number of animals protected after a dose of 50 mg/Kg i.p.; Number of animals tested 8 mice; type: functional
Structure (SMILES),IC50 [1] [µM],Animals protected (Mus musculus [2]),Animals protected (Mus musculus [3])
O=C(OC[C@@H]1c2ccc(Cl)cc2N[C@H]1C(=O)O)c1ccccc1,> 100,,
O=C(O)c1[nH]c2cc(Cl)ccc2c1CO,9,,
O=C(O)[C@@H]1Nc2cc(Cl)ccc2[C@H]1CO,> 100,,
O=C(CCc1c(C(=O)O)[nH]c2cc(Cl)cc(Cl)c12)Nc1ccccc1,0.036,,
O=C(O)[C@@H]1c2ccc(Cl)cc2N[C@H]1C(=O)O,> 100,,
COC(=O)[C@@H]1c2ccc(Cl)cc2N[C@H]1C(=O)O,> 300,,
O=C(O)C[C@@H]1c2ccc(Cl)cc2N[C@H]1C(=O)O,> 100,,
NC(=O)[C@@H]1c2ccc(Cl)cc2N[C@H]1C(=O)O,> 100,,
COC(=O)C1(C(=O)OC)c2ccc(Cl)cc2N[C@H]1C(=O)O,> 100,,
NC(=O)c1c(C(=O)O)[nH]c2cc(Cl)ccc12,0.81,,
O=C(O)CCc1c(C(=O)O)[nH]c2cc(Cl)cc(Cl)c12,0.07,6,0
Nc1ccc(CNC(=O)CCc2c(C(=O)O)[nH]c3cc(Cl)cc(Cl)c23)cc1,0.027,1,
